Source: PMC11141866, “Pyrimidine depletion enhances targeted and immune therapy combinations in acute myeloid leukemia” (JCI Insight, 2024)
Several values for one entry are separate records, joined by “and”; a condition that tells them apart may be missing. Equal values may be shown once. Read-outs that look alike come from different tables or passages of the source.

Experiments:
CYP 2B6 = CYP 2B6 (Homo sapiens, UniProt P20813); test: CYP inhibition 2B6; assay type: in vitro ADME
From the text: (§1) Supplement jciinsight-9-173646-s083.xlsx, sheet "Supplemental Table S.2." | column: HOSU-53

[1] = system: primary AML patient sample; test: Flow cytometry CD11b/CD14 differentiation, primary AML long-term culture; assay type: cell-based, human; conditions: 7 days LTC
Method: Cells were thawed in 50% FBS RPMI and then cultured in StemSpan (StemCell Technologies) media supplemented with human FLT3L, SCF, GM-CSF, G-CSF, IL-3, IL-6, TPO, and EPO cytokines for 7 days (LTC).
After 72 hours or 7 days of treatment of DHODHi, cells were collected and washed with PBS, blocked with human Fc block (BioLegend), and stained with antibodies for 30 minutes on ice. Antibodies were washed off and cells resuspended in FACS buffer (2% FBS, 2 mM NaN3, Dulbecco’s PBS) for analysis using BD LSRFortessa or Cytek Aurora spectral flow cytometer. Live/dead exclusion was done using LIVE/DEAD Fixable Near-IR (Invitrogen). All antibodies were purchased from BioLegend except CD47, which was purchased from BD Biosciences: CD11b clone M1/70, CD38 clone HIT2, CD14 clone M5E2, CD47 clone B6H12, CD33 clone WM53, CD3 clone UCHT1, CD19 clone HIB19, and CD45 clone HI30.
Supplemental Figure S.2. […] A).
Flow cytometry analysis of viable primary AML patient samples (n=10) treated in vitro for seven days (long term culture, LTC). Live cells were measured using LIVE/DEAD™ Fixable Near-IR (NIR) gated on singlet cells. […] Images were taken using BioTek Cytation 5 Cell Imaging Multimode Reader at 20x magnification. […]

Rat DHODH = Rat DHODH (Rattus norvegicus, UniProt Q63707); test: Cell-free multi-species DHODH enzyme inhibition assay, rat; assay type: biochemical; conditions: n=1
PPARγ = biological target: T1, PPARγ (Homo sapiens, UniProt P37231); test: CEREP Safety Screen 87; assay type: binding; conditions: 1 µM
T1 construct: purchased CEREP (Safety Screen 87 panel, as the earlier reading names the assay)
From the text: as §1

THP1 = test: MTS proliferation assay, THP1; assay type: cell-based; conditions: Homo sapiens, THP-1; THP1, 96-hour treatment; read-out: IC50 (MTS proliferation)
Method: (§2) A total of 10,000–20,000 cells from different AML lines or 50,000–75,000 cells of primary AML blasts were treated in a 96-well plate for 72 hours or 96 hours at 37°C, 5% CO2. CellTiter 96 Aqueous MTS reagent (Promega) was added to cells followed by a 3-hour incubation at 37°C, 5% CO2. The absorbance was measured at 490 nm using DTX 880 plate reader, and the IC50 was calculated using GraphPad Prism.

[2] = system: MOLM-13 disseminated CDX AML model; test: MOLM-13 CDX synergy with anti-CD38 immunotherapy; assay type: in vivo, NCG mice; conditions: HOSU53 10 mpk qd; event 1 = death; 10 mg/kg
Method: Male 8- to 12-week-old male NCG mice were engrafted with 1 × 10^5 cells via tail vein i.v. injection. […] Figure 7, B and C, and Supplemental Figure 7, A and B, share 2 combined vehicle groups (n = 16 total).
Supplemental Figure S.7. […] Using the
daratumumab (Dara) (A) or biwk 2.5 mg/kg i.p isatuximab, Isa (B) anti-CD38 antibodies or a
Treatment was stopped at day
80. Adjusted FDR p-value *<0.05, nonsignificant (ns) ≥0.05.
Both Supplementary Figure S.7, A and B share the same vehicle and 4 mg/kg
(1 picture or pasted object on this page, not shown here)

[3] = system: HL-60 disseminated CDX model; test: HL-60 CDX synergy with decitabine; assay type: in vivo, NCG mice; conditions: Decitabine 0.4 mpk IP (4on/10off), HOSU53 10 mpk p.o. qd, or both; flag 0 = censored at day 82
Method: Female 8- to 12-week-old female NCG mice were engrafted with 1 × 10^7 cells via tail vein i.v. injection. At 14 days after engraftment (day 1 of treatment), mice (n = 10/arm) were randomized to receive p.o. qd and i.p. vehicle (p.o. qd 40% HPβCD and 4 on/10 off i.p. PBS), 10 mg/kg HOSU-53, i.p. 0.4 mg/kg decitabine on a 4-day on/10-day off cycle, or their combination till moribundity or end of study day 82.

hERG = hERG (Homo sapiens, UniProt Q12809); test: hERG (Q-Patch); assay type: cell-based
From the text: as §1

primary AML samples = test: MTS proliferation assay, primary AML samples; assay type: cell-based, human; set-up: MTS proliferation data value: unit not given here; conditions: 96 h; for MTS proliferation data value: replicates; for IC50: Homo sapiens
Method: as §2

Chain of CYP 2B6 (P20813 whole entry): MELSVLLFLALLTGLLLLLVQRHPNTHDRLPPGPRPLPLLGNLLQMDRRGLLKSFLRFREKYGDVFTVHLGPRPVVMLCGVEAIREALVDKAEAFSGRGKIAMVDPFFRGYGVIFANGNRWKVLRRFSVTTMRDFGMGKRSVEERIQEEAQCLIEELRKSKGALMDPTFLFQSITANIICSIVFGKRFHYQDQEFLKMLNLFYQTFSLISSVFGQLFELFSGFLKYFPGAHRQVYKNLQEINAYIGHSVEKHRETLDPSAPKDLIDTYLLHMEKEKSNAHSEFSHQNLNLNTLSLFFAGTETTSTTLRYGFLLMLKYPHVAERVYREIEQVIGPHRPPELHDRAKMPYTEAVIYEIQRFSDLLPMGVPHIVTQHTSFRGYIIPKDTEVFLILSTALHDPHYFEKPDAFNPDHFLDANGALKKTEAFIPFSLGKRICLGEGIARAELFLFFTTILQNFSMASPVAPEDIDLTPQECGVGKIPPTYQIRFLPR
Chain of hERG (Q12809 whole entry): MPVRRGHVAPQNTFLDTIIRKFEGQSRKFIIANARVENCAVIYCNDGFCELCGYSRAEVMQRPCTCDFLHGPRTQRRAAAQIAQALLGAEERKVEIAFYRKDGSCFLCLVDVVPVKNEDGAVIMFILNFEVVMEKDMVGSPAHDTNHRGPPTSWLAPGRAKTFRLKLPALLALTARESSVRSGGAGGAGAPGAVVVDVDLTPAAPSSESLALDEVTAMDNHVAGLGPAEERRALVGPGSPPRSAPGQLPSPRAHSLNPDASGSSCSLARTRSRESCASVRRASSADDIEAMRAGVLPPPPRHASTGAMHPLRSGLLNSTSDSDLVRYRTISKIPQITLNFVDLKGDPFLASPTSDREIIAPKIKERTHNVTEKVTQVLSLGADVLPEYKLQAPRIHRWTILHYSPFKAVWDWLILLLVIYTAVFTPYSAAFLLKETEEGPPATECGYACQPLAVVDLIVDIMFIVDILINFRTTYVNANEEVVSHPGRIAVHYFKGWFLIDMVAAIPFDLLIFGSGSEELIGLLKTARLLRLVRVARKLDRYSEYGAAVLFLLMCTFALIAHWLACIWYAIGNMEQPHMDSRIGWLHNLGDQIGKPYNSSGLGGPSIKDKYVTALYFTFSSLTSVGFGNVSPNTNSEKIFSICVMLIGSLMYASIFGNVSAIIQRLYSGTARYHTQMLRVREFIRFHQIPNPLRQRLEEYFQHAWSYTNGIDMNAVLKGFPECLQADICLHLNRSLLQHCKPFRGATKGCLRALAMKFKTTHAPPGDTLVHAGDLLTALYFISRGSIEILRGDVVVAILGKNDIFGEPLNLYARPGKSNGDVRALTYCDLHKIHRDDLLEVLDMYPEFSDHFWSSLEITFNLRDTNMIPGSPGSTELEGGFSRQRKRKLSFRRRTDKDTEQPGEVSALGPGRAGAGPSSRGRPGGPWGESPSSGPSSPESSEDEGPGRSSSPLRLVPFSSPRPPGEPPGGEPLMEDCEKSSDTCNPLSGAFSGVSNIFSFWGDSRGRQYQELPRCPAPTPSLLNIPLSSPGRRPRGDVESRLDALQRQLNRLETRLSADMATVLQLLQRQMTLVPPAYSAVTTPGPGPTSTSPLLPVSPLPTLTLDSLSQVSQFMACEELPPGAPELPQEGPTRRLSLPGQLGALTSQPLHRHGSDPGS
T1 sequence (P37231 whole entry): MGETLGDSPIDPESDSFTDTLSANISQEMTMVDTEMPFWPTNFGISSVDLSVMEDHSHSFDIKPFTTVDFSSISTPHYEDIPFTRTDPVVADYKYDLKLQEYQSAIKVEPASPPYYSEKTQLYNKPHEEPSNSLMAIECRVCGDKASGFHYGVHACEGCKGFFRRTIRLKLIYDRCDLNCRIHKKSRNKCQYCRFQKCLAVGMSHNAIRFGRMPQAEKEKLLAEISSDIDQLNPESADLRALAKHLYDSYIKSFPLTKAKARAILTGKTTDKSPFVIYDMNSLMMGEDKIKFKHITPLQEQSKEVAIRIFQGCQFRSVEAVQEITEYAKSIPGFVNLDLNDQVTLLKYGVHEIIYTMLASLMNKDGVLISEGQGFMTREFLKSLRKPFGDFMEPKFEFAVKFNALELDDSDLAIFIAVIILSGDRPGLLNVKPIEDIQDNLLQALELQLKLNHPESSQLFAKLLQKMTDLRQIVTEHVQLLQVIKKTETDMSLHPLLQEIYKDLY
Chain of Rat DHODH (Q63707 whole entry): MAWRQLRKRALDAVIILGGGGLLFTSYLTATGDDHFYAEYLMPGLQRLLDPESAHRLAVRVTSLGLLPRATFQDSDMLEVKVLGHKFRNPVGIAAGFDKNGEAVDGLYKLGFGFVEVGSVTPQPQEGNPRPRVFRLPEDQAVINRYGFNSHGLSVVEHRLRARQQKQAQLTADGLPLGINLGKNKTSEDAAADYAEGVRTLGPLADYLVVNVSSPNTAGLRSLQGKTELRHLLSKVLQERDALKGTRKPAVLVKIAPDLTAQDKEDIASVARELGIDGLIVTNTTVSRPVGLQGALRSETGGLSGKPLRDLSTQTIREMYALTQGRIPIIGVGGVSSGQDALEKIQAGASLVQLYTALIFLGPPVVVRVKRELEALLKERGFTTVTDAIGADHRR

With `CCCCOc1cccc(-c2ccc(-c3cc(C(=O)O)c4cc(F)ccc4n3)cc2)c1` [HOSU-53] as the molecule, how does the IC50 (CYP 2B6) read?
The IC50 was 11200 nM.

What about the “CD11b+CD14+ cells” value [1] of the same molecule?
Its value is “increased”.

What about the IC50 (Rat DHODH) of the same molecule?
The IC50 was 7.65 nM.

What about the “CEREP Safety Screen 87: PPARγ binding” value (PPARγ) of the same molecule?
The value was “PPARγ (66% binding at 1 µM)”.

What about the IC50 (THP1) of the same molecule?
Its IC50 is 50 nM.

And the “Day of Study (survival, per animal)” value [2]?
The value was 57 days and 64 days and 43 days and 63 days and 58 days and 62 days and 65 days.

And the “Survival, day of study at event (per animal)” value [3]?
The value was 57 days and 52 days and 56 days and 58 days and 55 days.

What about the IC50 (hERG) of the same molecule?
Its IC50 is over 30000 nM.

What about the “MTS proliferation data value” (primary AML samples; 0.25 µM, Pt.1) of the same molecule?
The value was 18.4884 and 20.0581 and 18.3139.

What about the “MTS proliferation data value” (primary AML samples; 0.25 µM, Pt.2) of the same molecule?
The value was 32.3851 (2×) and 33.2604.

What about the “MTS proliferation data value” (primary AML samples; 0.25 µM, Pt.3) of the same molecule?
Its value is 55.8692 and 53.1947.

What about the “MTS proliferation data value” (primary AML samples; 0.25 µM, Pt.4) of the same molecule?
Its value is 65.8976 and 67.7546 and 63.7029.

And the “MTS proliferation data value” (primary AML samples; 0.25 µM, Pt.5)?
The value was 79.2706 and 80.6142 and 76.9674.

What about the “MTS proliferation data value” (primary AML samples; 0.25 µM, Pt.6) of the same molecule?
The value was 33.7613 and 67.7492 and 73.4139.

What about the “MTS proliferation data value” (primary AML samples; 0.25 µM, Pt.7) of the same molecule?
Its value is 62.3298 and 55.7489 and 55.295.

What about the “MTS proliferation data value” (primary AML samples; 0.25 µM, Pt.8) of the same molecule?
The value was 107.765 and 102.823 and 101.765.

What about the “MTS proliferation data value” (primary AML samples; 0.5 µM, Pt.1) of the same molecule?
The value was 16.3954 and 17.2674 and 16.2209.

And the “MTS proliferation data value” (primary AML samples; 0.5 µM, Pt.2)?
Its value is 27.5711 and 28.884 and 28.2276.

And the “MTS proliferation data value” (primary AML samples; 0.5 µM, Pt.3)?
Its value is 49.3314 and 49.0342 and 46.211.

And the “MTS proliferation data value” (primary AML samples; 0.5 µM, Pt.4)?
The value was 54.2487 and 57.2876 and 57.4564.

What about the “MTS proliferation data value” (primary AML samples; 0.5 µM, Pt.5) of the same molecule?
Its value is 73.1286 and 69.0979 and 69.2898.

What about the “MTS proliferation data value” (primary AML samples; 0.5 µM, Pt.6) of the same molecule?
Its value is 55.9668 and 65.2568 and 57.5529.

And the “MTS proliferation data value” (primary AML samples; 0.5 µM, Pt.7)?
The value was 44.4024 and 40.0908 and 37.1407.

What about the “MTS proliferation data value” (primary AML samples; 0.5 µM, Pt.8) of the same molecule?
Its value is 86.9412 and 90.8235 and 88.3529.

And the “MTS proliferation data value” (primary AML samples; 0.75 µM, Pt.1)?
Its value is 15 and 14.4767 and 15.1744.

What about the “MTS proliferation data value” (primary AML samples; 0.75 µM, Pt.2) of the same molecule?
Its value is 23.4136 and 22.1007 and 24.5077.

What about the “MTS proliferation data value” (primary AML samples; 0.75 µM, Pt.3) of the same molecule?
Its value is 39.8217 and 43.685 and 41.9019.

What about the “MTS proliferation data value” (primary AML samples; 0.75 µM, Pt.4) of the same molecule?
The value was 52.2229 (2×) and 53.7423.

What about the “MTS proliferation data value” (primary AML samples; 0.75 µM, Pt.5) of the same molecule?
The value was 64.4914 and 65.8349 (2×).

And the “MTS proliferation data value” (primary AML samples; 0.75 µM, Pt.6)?
The value was 26.5106 and 39.426 and 36.7069.

And the “MTS proliferation data value” (primary AML samples; 0.75 µM, Pt.7)?
The value was 37.1407 and 39.8638 and 33.2829.

And the “MTS proliferation data value” (primary AML samples; 0.75 µM, Pt.8)?
The value was 77.0588 (2×) and 79.1765.

What about the “MTS proliferation data value” (primary AML samples; 1 µM, Pt.1) of the same molecule?
Its value is 14.4767 and 15.5233 and 13.7791.

What about the “MTS proliferation data value” (primary AML samples; 1 µM, Pt.2) of the same molecule?
The value was 21.663 (2×) and 22.9759.

What about the “MTS proliferation data value” (primary AML samples; 1 µM, Pt.3) of the same molecule?
Its value is 40.1189 and 38.633 and 39.5245.

And the “MTS proliferation data value” (primary AML samples; 1 µM, Pt.4)?
Its value is 47.327 and 51.7164 and 51.5476.

And the “MTS proliferation data value” (primary AML samples; 1 µM, Pt.5)?
The value was 64.6833 and 63.5317 and 66.6027.

And the “MTS proliferation data value” (primary AML samples; 1 µM, Pt.6)?
Its value is 19.0332 and 30.5891 and 31.9486.

And the “MTS proliferation data value” (primary AML samples; 1 µM, Pt.7)?
The value was 33.9637 and 32.6021 and 29.879.

What about the “MTS proliferation data value” (primary AML samples; 1 µM, Pt.8) of the same molecule?
Its value is 72.1176 and 72.8235 (2×).

And the “MTS proliferation data value” (primary AML samples; 5 µM, Pt.1)?
Its value is 14.3023.

And the “MTS proliferation data value” (primary AML samples; 5 µM, Pt.4)?
Its value is 43.444 and 45.8075 and 44.1193.

What about the “MTS proliferation data value” (primary AML samples; 5 µM, Pt.8) of the same molecule?
The value was 55.5294.

And the IC50 (primary AML samples; n = 8 samples, 96-hour treatment, read-out: median IC50 in primary AML patient samples)?
The IC50 was 120 nM.

And the IC50 (primary AML samples; read-out: IC50 [95% CI], Pt. 1, 96-hour treatment)?
Its IC50 is 23 nM.

And the IC50 (primary AML samples; read-out: IC50 [95% CI], Pt. 2, 96-hour treatment)?
The IC50 was 103 nM.

And the IC50 (primary AML samples; read-out: IC50 [95% CI], Pt. 3, 96-hour treatment)?
The IC50 was 85 nM.

What about the IC50 (primary AML samples; read-out: IC50 [95% CI], Pt. 4, 96-hour treatment) of the same molecule?
The IC50 was 112 nM.

What about the IC50 (primary AML samples; read-out: IC50 [95% CI], Pt. 5, 96-hour treatment) of the same molecule?
The IC50 was 129 nM.

What about the IC50 (primary AML samples; read-out: IC50 [95% CI], Pt. 6, 96-hour treatment) of the same molecule?
The IC50 was 155 nM.

What about the IC50 (primary AML samples; read-out: IC50 [95% CI], Pt. 7, 96-hour treatment) of the same molecule?
Its IC50 is 169 nM.

What about the IC50 (primary AML samples; read-out: IC50 [95% CI], Pt. 8, 96-hour treatment) of the same molecule?
The IC50 was 584 nM.
